Results on 42 compounds are retold here after patent US20130096119A1, “Isoquinolin-3-Ylurea Derivatives” (priority 2010, published 2013).

The test system of this assay is S. pneumoniae ATCC 49619. The assay is described as follows: Minimal inhibitory concentration (MIC) by microdilution method (CLSI M7-A7). Format: cell-based, Streptococcus pneumoniae. The conditions noted are these: for MIC: Streptococcus pneumoniae, ATCC49619, cation-adjusted Mueller-Hinton Broth supplemented with 3% (v/v) lysed horse blood. In a few lines: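 Broth microdilution per CLSI M7-A7 in cation-adjusted Mueller-Hinton broth, supplemented with 3% (v/v) lysed horse blood for S. pneumoniae; MIC reported in mg/l.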
(In general: Dilution methods test growth across graded concentrations, often in twofold steps.)

In brackets after ≈: the same amount, converted by molar mass.

The term MIC denotes the lowest concentration found to suppress growth. High values mean weaker potency, low ones greater potency. `CCNC(=O)Nc1cc2c(-c3ccccc3)cccc2cn1` [Example 43, 1-ethyl-3-(5-phenyl-isoquinolin-3-yl)-urea] displayed an MIC of 8 µg/mL (≈ 27.5 µM).

`CCNC(=O)Nc1cc2cccc(Nc3cccc(O)c3)c2cn1` [Example 170, 1-ethyl-3-[8-(3-hydroxy-phenylamino)-isoquinolin-3-yl]-urea] returned an MIC of 2 µg/mL (≈ 6.2 µM). Against the preceding compound, the MIC is about 4-fold lower.

In turn, `CCNC(=O)Nc1cc2c(F)c(NCc3ccccc3)cc(C)c2cn1` [Example 57, 1-(6-benzylamino-5-fluoro-8-methyl-isoquinolin-3-yl)-3-ethyl-urea] registered an MIC of 0.5 µg/mL (≈ 1.42 µM). The same measure, in the same setting: then `CCNC(=O)Nc1cc2cc(-c3cccc(CO)c3)cc(C)c2cn1` [Example 19, 1-ethyl-3-[6-(3-hydroxymethyl-phenyl)-8-methyl-isoquinolin-3-yl]-urea], with 1 µg/mL (≈ 2.98 µM); and `CCNC(=O)Nc1cc2c(F)ccc(NCc3ccccc3)c2cn1` [Example 56, 1-(8-benzylamino-5-fluoro-isoquinolin-3-yl)-3-ethyl-urea], with 8 µg/mL (≈ 23.6 µM); and `CCNC(=O)Nc1cc2cc(-c3cccc(F)c3)cc(C)c2cn1` [Example 88, 1-ethyl-3-[6-(3-fluoro-phenyl)-8-methyl-isoquinolin-3-yl]-urea], with 2 µg/mL (≈ 6.18 µM). `CCNC(=O)Nc1cc2c(-c3cccc4cnccc34)ccc(C)c2cn1` [Example 67, 1-ethyl-3-(8-methyl-[5,5′]biisoquinolinyl-3-yl)-urea] registered an MIC of 16 µg/mL (≈ 44.9 µM). The same measure, in the same setting: in the case of `CCNC(=O)Nc1cc2cc(NC(=O)c3cccc(N(C)C)c3)cc(Nc3cccnc3)c2cn1` [Example 241, 3-dimethylamino-N-[3-(3-ethyl-ureido)-8-(pyridin-3-ylamino)-isoquinolin-6-yl]-benzamide] it was ≤ 0.031 µg/mL; in that of `CCNC(=O)Nc1cc2cc(NCc3cccc(Cn4cncn4)c3)cc(C)c2cn1` [Example 188, 1-{6-[(3-((1H-1,2,4-triazol-1-yl)methyl)benzyl)amino]-8-methylisoquinolin-3-yl}-3-ethylurea], 8 µg/mL (≈ 19.3 µM). For the compound “1-[8-(2,4-dimethyl-imidazol-1-ylmethyl)-isoquinolin-3-yl]-3-ethyl-urea and 1-[8-(2,5-dimethyl-imidazol-1-ylmethyl)-isoquinolin-3-yl]-3-ethyl-urea [Example 296]”, the “MIC for S. pneumoniae ATCC 49619” value (cation-adjusted Mueller-Hinton Broth supplemented with 3% (v/v) lysed horse blood) turned out to be 8 µg/mL. The compound `CCNC(=O)Nc1cc2cccc(NC(=O)c3ccc[nH]3)c2cn1.Cl` [Example 182, 1H-pyrrole-2-carboxylic acid [3-(3-ethyl-ureido)-isoquinolin-8-yl]-amide hydrochloride] yielded an MIC of 2 µg/mL. In turn, `CCNC(=O)Nc1cc2cc(-c3ccc4c(c3)CCO4)cc(C)c2cn1` [Example 83, 1-[6-(2,3-dihydro-benzofuran-5-yl)-8-methyl-isoquinolin-3-yl]-3-ethyl-urea] came in with an MIC of 1 µg/mL (≈ 2.88 µM). Same read-out and setting: then `CCNC(=O)Nc1cc2cccc(COc3ccccc3C(=O)OC)c2cn1.Cl` [Example 258, 2-[3-(3-ethyl-ureido)-isoquinolin-8-ylmethoxy]-benzoic acid methyl ester hydrochloride], with 8 µg/mL; and `CCNC(=O)Nc1cc2c(F)c(-c3cnc4ccccc4c3)cc(-c3cnc4ccccc4c3)c2cn1` [Example 112, 1-ethyl-3-(5-fluoro-6,8-di-quinolin-3-yl-isoquinolin-3-yl)-urea], with 0.5 µg/mL (≈ 1.03 µM). Same read-out and setting: then `CCNC(=O)Nc1cc2cc(-c3cncc(S(C)(=O)=O)c3)cc(C)c2cn1` [Example 103, 1-ethyl-3-[6-(5-methanesulfonyl-pyridin-3-yl)-8-methyl-isoquinolin-3-yl]-urea], with 0.5 µg/mL (≈ 1.3 µM).

`CCNC(=O)Nc1cc2c(NCC)ccc(C)c2cn1` [Example 63, 1-ethyl-3-(5-ethylamino-8-methyl-isoquinolin-3-yl)-urea] came in with an MIC of 2 µg/mL (≈ 7.34 µM). This MIC lies about 4-fold higher than the previous one. Still for that read-out and setting: then `CCNC(=O)Nc1cc2cc(NC(=O)c3ccccc3)cc(C)c2cn1` [Example 106, N-[3-(3-ethyl-ureido)-8-methyl-isoquinolin-6-yl]-benzamide], with 0.125 µg/mL (≈ 0.359 µM); and `CCNC(=O)Nc1cc2c(-c3ccc(C(=O)N(C)C)cc3)ccc(C)c2cn1` [Example 5, 4-[3-(3-ethyl-ureido)-8-methyl-isoquinolin-5-yl]-N,N-dimethyl-benzamide], with 1 µg/mL (≈ 2.66 µM). The same measure, in the same setting: then `CCNC(=O)Nc1cc2cccc(Nc3ccn4ccnc4c3)c2cn1` [Example 150, 1-ethyl-3-[8-(imidazo[1,2-a]pyridin-7-ylamino)-isoquinolin-3-yl]-urea], with 4 µg/mL (≈ 11.5 µM); and `CCNC(=O)Nc1cc2c(-c3ccnc(F)c3)ccc(C)c2cn1` [Example 41, 1-ethyl-3-[5-(2-fluoro-pyridin-4-yl)-8-methyl-isoquinolin-3-yl]-urea], with 2 µg/mL (≈ 6.17 µM); and `CCNC(=O)Nc1cc2c(-c3cccc(S(N)(=O)=O)c3)ccc(C)c2cn1` [Example 13, 3-[3-(3-ethyl-ureido)-8-methyl-isoquinolin-5-yl]-benzenesulfonamide], with 2 µg/mL (≈ 5.2 µM). On the same count and under the same terms, in the case of `CCNC(=O)Nc1cc2c(CN3CCOCC3)ccc(Nc3cccc(OC)n3)c2cn1` [Example 275, 1-ethyl-3-{8-[(6-methoxy-pyridin-2-yl)amino]-5-(morpholin-4-ylmethyl)-isoquinolin-3-yl}-urea] it was 4 µg/mL (≈ 9.16 µM); in that of `CCNC(=O)Nc1cc2c(-c3ccncc3)ccc(Nc3cccc(OC)n3)c2cn1` [Example 217, 1-ethyl-3-[8-(6-methoxy-pyridin-2-ylamino)-5-pyridin-4-yl-isoquinolin-3-yl]-urea], 0.5 µg/mL (≈ 1.21 µM). For `CCNC(=O)Nc1cc2c(F)c(-c3cccc(NC(C)=O)c3)cc(Nc3cccnc3)c2cn1` [Example 234, N-{3-[3-(3-ethyl-ureido)-5-fluoro-8-(pyridin-3-ylamino)-isoquinolin-6-yl]phenyl}-acetamide], the MIC was 0.25 µg/mL (≈ 0.545 µM). This MIC is about 2-fold lower than that of the compound before. The compound `CCNC(=O)Nc1cc2cccc(Nc3cccc(C(=O)NC)c3)c2cn1.Cl` [Example 200, 3-[3-(3-ethyl-ureido)-isoquinolin-8-ylamino]-N-methyl-benzamide hydrochloride] had an MIC of 1 µg/mL. The same measure, in the same setting: in the case of `CCNC(=O)Nc1cc2c(F)c(-c3cccc(NC(C)=O)c3)cc(-c3cnc(OC)nc3)c2cn1` [Example 114, N-{3-[3-(3-ethyl-ureido)-5-fluoro-8-(2-methoxy-pyrimidin-5-yl)-isoquinolin-6-yl]-phenyl}-acetamide] it was 0.5 µg/mL (≈ 1.05 µM); in that of `CCNC(=O)Nc1cc2cccc(-c3ccc(C(=O)O)cc3)c2cn1` [Example 123, 4-[3-(3-ethyl-ureido)-isoquinolin-8-yl]-benzoic acid], 4 µg/mL (≈ 11.9 µM). Same read-out and setting: then `CCNC(=O)Nc1cc2c(F)c(-c3ccccn3)cc(C)c2cn1` [Example 48, 1-ethyl-3-(5-fluoro-8-methyl-6-pyridin-2-yl-isoquinolin-3-yl)-urea], with 1 µg/mL (≈ 3.08 µM); and `CCNC(=O)Nc1cc2cc(NCc3ccc4cn[nH]c4c3)cc(C)c2cn1` [Example 184, 1-ethyl-3-{6-[(1H-indazol-6-ylmethyl)-amino]-8-methyl-isoquinolin-3-yl}-urea], with 4 µg/mL (≈ 10.7 µM); and `CCNC(=O)Nc1cc2cccc(NC(=O)c3cnn[nH]3)c2cn1.Cl` [Example 183, 3H-[1,2,3]triazole-4-carboxylic acid [3-(3-ethyl-ureido)-isoquinolin-8-yl]-amide hydrochloride], with 4 µg/mL. As to `CCNC(=O)Nc1cc2cc(NCCOCc3ccccc3)cc(C)c2cn1.Cl` [Example 132, 1-[6-(2-benzyloxy-ethylamino)-8-methyl-isoquinolin-3-yl]-3-ethyl-urea hydrochloride], inhibition of growth (MIC) required 8 µg/mL. Against the preceding compound, the MIC is about 2-fold higher. Same read-out and setting: then `CCNC(=O)Nc1cc2cccc(Nc3ccncc3)c2cn1` [Example 153, 1-ethyl-3-[8-(pyridin-4-ylamino)-isoquinolin-3-yl]-urea], with 8 µg/mL (≈ 26 µM).

As for `CCNC(=O)Nc1cc2cc(NC(=O)c3cccc(N(C)C)c3)cc(C)c2cn1` [Example 118, 3-dimethylamino-N-[3-(3-ethyl-ureido)-8-methyl-isoquinolin-6-yl]-benzamide], the MIC amounted to 0.06 µg/mL (≈ 0.153 µM). Regarding `CCNC(=O)Nc1cc2c(F)c(-c3ccc(S(N)(=O)=O)cc3)cc(Cl)c2cn1` [Example 111, 4-[8-chloro-3-(3-ethyl-ureido)-5-fluoro-isoquinolin-6-yl]-benzenesulfonamide], inhibition of growth (MIC) required 1 µg/mL (≈ 2.36 µM). This MIC lies about 17-fold higher than the previous one.

Turning to `CCNC(=O)Nc1cc2cccc(Nc3ccc(CC(=O)O)cc3)c2cn1` [Example 205, {4-[3-(3-ethyl-ureido)-isoquinolin-8-ylamino]phenyl}-acetic acid], the MIC came out at 4 µg/mL (≈ 11 µM). Still for that read-out and setting: then `CCNC(=O)Nc1cc2cccc(Cn3cccn3)c2cn1` [Example 295, 1-ethyl-3-(8-pyrazol-1-ylmethyl-isoquinolin-3-yl)-urea], with 8 µg/mL (≈ 27.1 µM). Compound `CCNC(=O)Nc1cc2c(-c3ccc(CO)cc3)ccc(Nc3cccnc3)c2cn1` [Example 226, 1-ethyl-3-[5-(4-hydroxymethyl-phenyl)-8-(pyridin-3-ylamino)-isoquinolin-3-yl]-urea] displayed an MIC of 1 µg/mL (≈ 2.42 µM). Turning to `CCNC(=O)Nc1cc2cccc(Nc3cncc(F)c3)c2cn1.Cl` [Example 159, 1-ethyl-3-[8-(5-fluoro-pyridin-3-ylamino)-isoquinolin-3-yl]-urea hydrochloride], the MIC stood at 2 µg/mL.

As to `CCNC(=O)Nc1cc2cc(-c3cnc4ccccc4c3)cc(C)c2cn1` [Example 36, 1-ethyl-3-(8-methyl-6-quinolin-3-yl-isoquinolin-3-yl)-urea], the MIC is 0.125 µg/mL (≈ 0.351 µM).

`CCNC(=O)Nc1cc2cccc(Nc3ccc(CC(=O)N(C)C)cc3)c2cn1.Cl` [Example 206, 2-{4-[3-(3-ethyl-ureido)-isoquinolin-8-ylamino]phenyl}-N,N-dimethyl-acetamide hydrochloride] returned an MIC of 4 µg/mL. Same read-out and setting: in the case of `CCNC(=O)Nc1cc2c(-c3ccc(S(N)(=O)=O)cc3)ccc(Nc3cccnc3)c2cn1` [Example 230, 4-[3-(3-ethyl-ureido)-8-(pyridin-3-ylamino)-isoquinolin-5-yl]-benzenesulfonamide] it was 0.5 µg/mL (≈ 1.08 µM).

In the case of `CCNC(=O)Nc1cc2cc(-c3cncc(F)c3)cc(C)c2cn1` [Example 102, 1-ethyl-3-[6-(5-fluoro-pyridin-3-yl)-8-methyl-isoquinolin-3-yl]-urea], the MIC came to 2 µg/mL (≈ 6.17 µM).
